Several values for one entry are separate records, joined by “and”; a condition that tells them apart may be missing. Equal entries are not always repeated. Structures can show the parent of a compound that is named as a salt.

In test [1] the target is T1, human α-thrombin (Homo sapiens, UniProt P00734).
T1 construct: purified human α-thrombin dissolved in thrombin assay buffer
Nature of the test: Enzyme assay for the inhibition of thrombin (s-2238 substrate). The class given is biochemical. On the set-up: key to Thrombin k2 /ki (second order rate constant), cells with symbol *: *: not measurable. The settings on record: for IC50: 3 min incubation of drug with enzyme, room temperature; for Thrombin k2 /ki (second order rate constant for inactivation of the enzyme) / Thrombin k2 /ki (second order rate constant), cells with symbol *: human α-thrombin; for Thrombin k2 /ki (second order rate constant for inactivation of the enzyme): s-2238, pH 7.4, room temperature; for Thrombin k2 /ki (second order rate constant), cells with symbol *: * = not measurable. The method, then:
1. Enzyme Assays for the Inhibition of Thrombin The following reagents were used in these assays: Thrombin assay buffer: 145 mM NaCl, 5 mM KCl, 30 mM N-2-hydroxyethyl piperazine-N'-2-ethanesulfonic acid, pH 7.4, 1 mg/ml polyethylene glycol (PEG-8000). 3 mM D-Phe-Pip-Arg-p-nitroanilide (s-2238) in H2 O. 3 U/ml purified human α-thrombin dissolved in thrombin assay buffer. Inhibitors to be tested were dissolved in H2 O, methanol, or DMSO just prior to use. Assay Procedure To each well in a 96-well microtiter plate, 270 μl of assay buffer was added. Human α-thrombin (10 μl of 3 U/ml) was added, then 10 μl of inhibitor were added and mixed. The samples were incubated at room temperature for a defined period of time (3 min for initial IC50 determinations). The enzymic reaction was started with 10 μl of 3 mM s-2238 substrate and continued at room temperature. The change in optical density was measured at 405 nm. A kinetic microplate reader (Molecular Devices Corporation Vmax) was used to measure the change in optical density over time. Results are reported in Table 1 as IC50 values, i.e., the drug concentration in mole/liter which caused 50% inhibition of the enzyme activity (after incubation of the drug with the enzyme for 3 min). Alternatively, results are also reported in Table 1 expressed as k2 /ki which is the second order rate constant in per mole per minute for inactivation time of the enzyme [Kitz, et al., J. Biol. Chem., 237, 3245 (1962)].

Test [2] has as its target T2, bovine pancreatic trypsin (Bos taurus, UniProt P00760).
T2 construct: purified bovine pancreatic trypsin dissolved in trypsin assay buffer
T2 sequence (P00760 24-246): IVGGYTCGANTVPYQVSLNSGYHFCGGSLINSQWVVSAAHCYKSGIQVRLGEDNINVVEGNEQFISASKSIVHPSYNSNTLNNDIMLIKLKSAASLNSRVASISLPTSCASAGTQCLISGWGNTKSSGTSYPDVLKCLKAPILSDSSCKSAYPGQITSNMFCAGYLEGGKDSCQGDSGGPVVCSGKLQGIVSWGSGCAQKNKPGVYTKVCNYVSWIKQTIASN
Nature of the test: Enzyme assay for the inhibition of trypsin (Z-Val-Gly-Arg-pNA substrate). The class given is biochemical. Particulars: 3 min incubation of drug with enzyme, room temperature, pH 8.0; read-out: Trypsin IC50. The protocol: 2. Enzyme Assays for the Inhibition of Trypsin
(§1) The following reagents were used in these assays:
Trypsin assay buffer: 2 mM CaCl2, 50 mM Tris/Cl pH 8.0.
3 mM Z-Val-Gly-Arg-pNA (Chromzyme TRy) dissolved in H2 O.
6 μg/ml of purified bovine pancreatic trypsin dissolved in trypsin assay buffer.
Inhibitors to be tested were dissolved in H2 O, methanol or DMSO just prior to use.
To each well in a 96-well microtiter plate, 270 μl of assay buffer was added. Bovine trypsin (10 μl of 6 μg/ml) was added. Inhibitor (10 μl ) was added, mixed, and then incubated at room temperature for 3 min. The enzymic reaction was started with 10 μl of 3 mM Z-Val-Gly-Arg-pNA substrate. The change in optical density was measured at 405 nm at room temperature. A kinetic microplate reader (Molecular Devices Corporation Vmax) was used to measure the change in optical density over time.
Results are reported in Table 1 as IC50 values, i.e., the drug concentration in mole/liter which caused 50% inhibition of the enzyme activity (after incubation of the drug with the enzyme for 3 min).

In test [3] the target is T1, human α-thrombin. Nature of the test: Concentration required for doubling thrombin clotting time in human plasma. The class given is biochemical. The settings on record: human citrated plasma, 10 U/ml human thrombin; read-out: ED50, drug concentration required to double clotting time. The protocol: Procedure for Determining the Concentration Required for Doubling Thrombin Clotting Time--Clotting Time Assays The following reagents were used in these assays: Owren's Veronal Buffer: 125 mM NaCl, 28.4 mM sodium barbital, pH 7.35. Human citrated plasma obtained from human volunteers or citrated plasma obtained from IP-dosed animals (prepared as described below). 10 NIH Units/ml human α-thrombin in thrombin buffer for use with human plasma. […] The blood was centrifuged at […] (480×g) for 15 min at room temperature (using a Sorvall RT 6000B centrifuge). The plasma was removed, pooled, and aliquoted into small tubes which were stored frozen for later use. Clotting Time Measurement Clotting times were determined by pipetting 0.1 ml of Owren's buffer (pre-warmed 37° C.) and 0.1 ml of human or rat plasma into yellow sample cuvettes. For studies with human plasma 10 U/ml human thrombin (10 ml) was placed in the reservoir assembly station of the MLA 700. (Medical Laboratory Automation, Electra 700 Reservoir Assembly). For rat studies, the human thrombin concentration was 25 U/ml. The cuvettes were vortexed and then placed on the MLA 700 sample wheel. The coagulation timer (MLA 700) automatically dispenses 0.1 ml human thrombin into the sample in each cuvette. Detection of the fibrin clot was determined optically by the MLA 700. Studies were performed to determine the concentration of drug which caused a doubling of the clotting time in human plasma. From standard curves of thrombin activity added to the sample versus the clotting time, the concentration of drug which caused a doubling of the thrombin clotting time corresponded to inhibition of approximately 1/2 of the added thrombin clotting activity. Results are reported in Table 1 as ED50 values, i.e., the drug concentration required to double clotting time.

Test [4] relates to Thrombin Induced Clotting Time. Nature of the test: Thrombin induced clotting time ex vivo in plasma of i.p. dosed rats. Particulars: rat, 50 mg/kg i.p. The protocol: Procedure for Determining the Concentration Required for Doubling Thrombin Clotting Time--Clotting Time Assays
as §1
Owren's Veronal Buffer: 125 mM NaCl, 28.4 mM sodium barbital, pH 7.35.
Human citrated plasma obtained from human volunteers or citrated plasma obtained from IP-dosed animals (prepared as described below).
25 NIH Units/ml human α-thrombin in thrombin buffer for use with rat plasma.
Test compound was prepared just prior to dosing. Routinely the drugs are dissolved in water. Animals were dosed by i.p. injection.
After the appropriate time period, the animals were ether-anesthetized, and blood was drawn by cardiac puncture using 333 μl of 3.8% sodium citrate per 3 ml blood. After all of the samples were obtained, the tubes were centrifuged at 1,500 rpm for 15 min as described for the human blood samples.
Clotting Time Measurement
Clotting times were determined by pipetting 0.1 ml of Owren's buffer (pre-warmed 37° C.) and 0.1 ml of human or rat plasma into yellow sample cuvettes. For studies with human plasma 10 U/ml human thrombin (10 ml) was placed in the reservoir assembly station of the MLA 700. (Medical Laboratory Automation, Electra 700 Reservoir Assembly). For rat studies, the human thrombin concentration was 25 U/ml. The cuvettes were vortexed and then placed on the MLA 700 sample wheel. The coagulation timer (MLA 700) automatically dispenses 0.1 ml human thrombin into the sample in each cuvette. Detection of the fibrin clot was determined optically by the MLA 700.
In separate studies, two compounds, Compound XIX and Compound XI, were dosed 50 mg/kg I.P. to three rats in each study group. […] "Term" indicates "terminated sample" where a clot was unable to form after approximately 99 seconds. When this occurred, the animal plasma was diluted 1: 1 with control rat plasma and the sample tested again. If need, the animal plasma was diluted 1:4 and tested again.

The mark [5] stands for this setting: 0.5 hr. post dose, undiluted plasma, per animal.

As usually defined, the IC50 is the concentration at which inhibition is half-maximal. As for `COC(=O)[C@H]1[C@H](CCCNC(=N)N)C(=O)N1C(C)=O` (relative stereo) [II, trans-4-Methoxycarbonyl-3-[3-quanidinopropyl)-1-acetyl-2-azetidinone hydrochloride salt], at human α-thrombin [1], the IC50 was determined as 0.002 µM and the “Thrombin k2 /ki (second order rate constant for inactivation of the enzyme)” value was 1.9 × 10^7 m^-1 min^-1. Moreover, the IC50 in test [2] stood at 0.04 µM. In addition, the IC (2-fold clotting time) on human α-thrombin [3] is 1.25 µM.
As to `CC(=O)N1C(=O)[C@@H](CCCNC(=N)N)[C@@H]1S(=O)(=O)c1ccccc1` (relative stereo) [VI, trans-4-Phenylsulfonyl-3-guanidinopropyl-1-acetyl-2-azetidine hydrochloride salt], at human α-thrombin [1], the midpoint of inhibition, the IC50, lay at 0.0032 µM and the “Thrombin k2 /ki (second order rate constant for inactivation of the enzyme)” value is reported as 3.0 × 10^6 m^-1 min^-1. In addition, the IC50 in test [2] amounted to 0.75 µM. The IC (2-fold clotting time) at human α-thrombin [3] is 15 µM.
With `CC(=O)OC1C(CCCNC(=N)N)C(=O)N1C(=O)c1ccccc1` (stereo not drawn) [XXII, 4-Acetyloxy-3-guanidinooropyl-1-phenylcarbonyl-2-azetidinone hydrochloride salt], at human α-thrombin [1], the midpoint of inhibition, the IC50, lay at 0.035 µM and the “Thrombin k2 /ki (second order rate constant), cells with symbol *” value was “*”. Moreover, the IC (2-fold clotting time) on human α-thrombin [3] was determined as 10.0 µM.
In the case of `CC(=O)N1C(=O)[C@@H](CCCNC(=N)N)[C@@H]1C(=O)NCC(=O)O` (relative stereo) [Compound XIX, 4-[[(2-Hydroxy-2-oxoethyl)amino]carbonyl]-3-(3-guanidinopropyl)-1-acetyl-2-azetidinone hydrochloride salt], the half-maximal inhibitory concentration (IC50) against human α-thrombin [1] came to 0.012 µM. Besides, the “Thrombin k2 /ki (second order rate constant for inactivation of the enzyme)” value on human α-thrombin [1] is listed as 2.0 × 10^7 m^-1 min^-1. Further, the IC (2-fold clotting time) at human α-thrombin [3] was determined as 0.43 µM. The “Thrombin Induced Clotting Time (1:1 Control Plasma)” value in test [4] (0.5 hr. post dose, plasma diluted 1:1 with control rat plasma, hydrochloride salt, 50 mg/kg, in s) is 14.4 and 17.3. Also, the “Thrombin Induced Clotting Time” value in test [4] (setting [5]) was 45.2 s; in test [4] (2 hr. post dose, undiluted plasma, per animal, hydrochloride salt, 50 mg/kg), 12.9 s and 13.3 s and 14.4 s; in test [4] (5 hr. post dose, undiluted plasma, per animal, hydrochloride salt, 50 mg/kg), 13.5 s and 13.6 s and 13.3 s. Moreover, the “Thrombin Induced Clotting Time, terminated samples” value in test [4] (setting [5]) is listed as “term. ("terminated sample" where a clot was unable to form after approximately 99 seconds)”. Besides, the “Clotting time ex vivo, result in words” value in test [4] (three rats per group) is listed as “prolonged clotting time”.
`CC(=O)N1CC(CCCNC(=N)N)C1=O` (stereo not drawn) [VIII, 3-Guanidinopropyl-1-acetyl-2-azetidinone hydrochloride salt] displayed an IC50 against human α-thrombin [1] of 0.1 µM.
Turning to `CCS(=O)(=O)[C@H]1[C@H](CCCNC(=N)N)C(=O)N1C(C)=O` (relative stereo) [Compound X, trans-4-Ethylsulfonyl-3-quanidinopropyl-1-acetyl-2-azetidinone hydrochloride salt], at human α-thrombin [1], the “Thrombin k2 /ki (second order rate constant for inactivation of the enzyme)” value is 3.0 × 10^6 m^-1 min^-1.
For `CC(=O)N1C(=O)C(CCCNC(=N)N)C1C(=O)N1CCC[C@H]1C(=O)O` (stereo partly drawn) [XVIII, trans-4-[(2-Carboxy-1-pyrrolidinyl)carbonyl]-3-(3-guanidino)-procyl-1-acetyl-2-azetidinone hydrochloride salt], on human α-thrombin [1], inhibition was half-maximal at 0.049 µM (IC50) and the “Thrombin k2 /ki (second order rate constant for inactivation of the enzyme)” value is listed as 4.3 × 10^6 m^-1 min^-1. In addition, the IC (2-fold clotting time) at human α-thrombin [3] is 1.25 µM.
Consider `CN(C)c1cccc2c(S(=O)(=O)N3CC(CCCNC(=N)N)C3=O)cccc12` (stereo not drawn) [IX, 3-Guanidinopropyl-1-[(5-dimethylamino)-1-naphthanesulfonyl)]-2-azetidinone hydrochloride salt], for which, on human α-thrombin [1], the IC50 came out at 1 µM and the “Thrombin k2 /ki (second order rate constant), cells with symbol *” value was “*”. Also, the IC (2-fold clotting time) on human α-thrombin [3] amounted to 30 µM.
In the case of `CC(=O)OC1C(CCCNC(=N)N)C(=O)N1C(=O)C(C)(C)C` (stereo not drawn) [XXI, 4-Acetyloxy-3-guanidinopropyl-1-t-butylcarbonyl-2-azetidinone hydrochloride salt], half-maximal inhibition at human α-thrombin [1] (IC50) required 0.074 µM.
In the case of `COC(=O)[C@H]1[C@H](CCCCNC(=N)N)C(=O)N1S(=O)(=O)c1cccc2c(N(C)C)cccc12` (relative stereo) [XVII, trans-4-Methoxycarbonyl-3-(4-guanidinobutyl)-1-[(5-dimethylamino)-1-naphthalenesulfonyl]-2-azetidinone hydrochloride salt], on human α-thrombin [1], the “Thrombin k2 /ki (second order rate constant for inactivation of the enzyme)” value is 3.7 × 10^5 m^-1 min^-1. Also, on human α-thrombin [3], the IC (2-fold clotting time) came out at 50 µM.
For `COC(=O)[C@H]1[C@H](CCCNC(=N)N)C(=O)N1S(C)(=O)=O.Cl` (relative stereo) [IV, trans-4-Methoxycarbonyl-3-(guanidinopropyl)-1-methylsulfonyl-2-azetidinone hydrochloride salt], on human α-thrombin [1], the IC50 came to 0.02 µM and the “Thrombin k2 /ki (second order rate constant for inactivation of the enzyme)” value is 1.5 × 10^6 m^-1 min^-1. Further, in test [2], the IC50 stood at 0.07 µM.
With `CC(=O)N1C(=O)[C@H](CCCNC(=N)N)[C@@H]1C(=O)N1CCCCC1` (relative stereo) [XXIII, cis-4-(1-Piperidinocarbonyl)-3-guanidinopropyl-1-acetyl-2-azetidinone hydrochloride salt], on human α-thrombin [1], the “Thrombin k2 /ki (second order rate constant for inactivation of the enzyme)” value was 4.3 × 10^4 m^-1 min^-1. In addition, the IC (2-fold clotting time) on human α-thrombin [3] turned out to be 20 µM.

These data come from patent US5175283A, “Azetidin-2-one derivatives as serine protease inhibitors” (Bristol-Myers Squibb Company, priority 1992, dated 1992).
